IC50 data for one compound are collected here from PMC9865645, “The Impact of N^ε-Acryloyllysine Piperazides on the Conformational Dynamics of Transglutaminase 2” (International Journal of Molecular Sciences, 2023).

As usually defined, the IC50 is the point on the concentration scale where inhibition reaches its midpoint.

The assay deals with T1, in-house produced N-terminally Twin-Strep-tagged hTGase 2 (Homo sapiens, UniProt P21980).
T1 construct: thrombin cleavage site (N); made in house; host or cells: E. coli BL21(DE3)
T1 sequence (P21980 1-687): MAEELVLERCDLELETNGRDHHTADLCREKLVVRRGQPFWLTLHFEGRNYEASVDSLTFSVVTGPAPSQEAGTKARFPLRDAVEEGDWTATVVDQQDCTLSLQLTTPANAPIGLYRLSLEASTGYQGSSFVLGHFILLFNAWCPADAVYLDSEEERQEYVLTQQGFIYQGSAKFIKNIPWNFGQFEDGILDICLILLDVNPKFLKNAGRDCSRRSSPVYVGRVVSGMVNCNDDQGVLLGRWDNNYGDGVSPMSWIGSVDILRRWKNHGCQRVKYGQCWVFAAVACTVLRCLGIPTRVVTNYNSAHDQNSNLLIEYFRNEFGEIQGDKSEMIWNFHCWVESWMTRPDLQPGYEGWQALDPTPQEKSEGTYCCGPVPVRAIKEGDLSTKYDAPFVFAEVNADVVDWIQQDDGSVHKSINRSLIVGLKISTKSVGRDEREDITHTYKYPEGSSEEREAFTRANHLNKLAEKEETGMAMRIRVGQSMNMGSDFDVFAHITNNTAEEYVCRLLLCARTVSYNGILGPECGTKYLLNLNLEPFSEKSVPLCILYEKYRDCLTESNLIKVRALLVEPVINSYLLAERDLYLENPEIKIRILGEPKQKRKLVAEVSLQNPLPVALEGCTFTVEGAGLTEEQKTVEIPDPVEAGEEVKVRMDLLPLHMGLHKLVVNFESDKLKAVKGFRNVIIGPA
In words: fluorescence anisotropy (FA)-based transamidase activity assay, in-house Twin-Strep-tagged hTGase 2. The class given is biochemical. An excerpt: The gene of hTGase 2 (Uniprot ID: P21980) with an N-terminal thrombin cleavage site was cloned into the pPSG-IBA105 vector containing the sequence for an N-terminal Twin-Strep-tag (IBA Lifesciences GmbH, Göttingen, Germany) to obtain the final plasmid pPSG-IBA105/TCS-hTGase 2. The plasmid construct was verified by DNA sequencing (Eurofins Genomics Germany GmbH) and then transformed into E. coli BL21(DE3) by the heat–shock method. hTGase 2-expressing E. coli cells were lysed by lysozyme treatment, and hTGase 2 was purified by affinity chromatography on an ÄKTA purifier UPC 10 FPLC equipped with a Strep-Tactin XT cartridge (GE Healthcare Europe GmbH, Freiburg, Germany). Identity and purity of self-produced hTGase 2 were verified by SDS-PAGE and Western Blot analysis, respectively. Protein concentration was determined according to Bradford. More detailed descriptions of the generation and characterization of the final plasmid construct pPSG-IBA105/TCS-hTGase 2 and the expression, purification, and characterization of the self-produced hTGase 2 protein will be published elsewhere (manuscript in preparation).
For the analysis of inhibitor 1 on self-produced hTGase 2, 2 µg/mL of the enzyme was used to guarantee comparability with the value reported by Wodtke et al., whereas all other experiments were performed with 5 µg/mL of either commercial or self-produced hTGase 2 (corresponding to 64.1 and 61.6 nM, respectively, when assuming 100% active protein). Parallel and perpendicular fluorescence intensities were measured over 1190 s in 35 s intervals (1) or over 1776 s in 48 s intervals (2, 3) and used to calculate the FA. Data of FA for the first 875 s (1) or 384 s (2, 3) were analyzed by linear regression, with slopes corresponding to enzymatic rates. Rates in the presence of inhibitor were normalized by dividing them by the respective rate in the absence of inhibitor, and normalized rates were analyzed according to Equation (S29) in Supplementary Materials to calculate values of IC50. Data analysis was performed with Microsoft Excel (Microsoft Office Professional Plus 2016, Microsoft® Corporation, USA) and GraphPad Prism version 5.03 or version 6.07 for Windows (GraphPad Software, La Jolla, CA, USA).

As to `C=CC(=O)NCCCC[C@H](NC(=O)Cc1ccccc1I)C(=O)N1CCN(c2ccc([N+](=O)[O-])nc2)CC1` [Compound 2, N^α-(2-Iodophenylacetyl)-N^ε-acryloyl-L-lysin-4-(2-nitropyridin-5-yl)piperazide], the IC50 is, setting by setting: (5 min pre-incubation of enzyme and inhibitor, mean (SEM) of three experiments) 116 nM; (30 min pre-incubation, hTGase 2 (in-house) 61.6 nM, mean (SEM)) 35.2 nM.
